Earlier results on one compound are cited in publication PMC6591635, “Advancing the Therapeutic Potential of Indoleamides for Tuberculosis” (Antimicrobial Agents and Chemotherapy, 2019).

≈ marks a conversion by molar mass, not a printed value.

In the series the test system is M. tuberculosis H37Rv. The following applies: M. tuberculosis H37Rv; concentration used as 1× MIC; cited from earlier work.

`Cc1cc(C)c2cc(C(=O)NC3CCCCCCC3)[nH]c2c1` [compound 1]: the “MIC (1× MIC)” value was 4 ng/mL (≈ 0.0134 µM).
